Laboratory results: patent US20040116420A1 (priority 2001, published 2004)

What was measured:
Vero cells = test: Cytotoxicity, Vero cells, Alamar Blue; type: cell-based; conditions: 25 μM, 20 hours
Summary of the method: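 Overnight-seeded Vero cells were exposed to 25 μM compound in 2% FBS-DMEM for 20 h at 37 °C, 5% CO2. Alamar Blue was then added for about 6 h. The absorbance ratio relative to compound-free control gave the living-cell ratio.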

HSV-1 protease = biological target: T1, HSV-1 protease (Human herpesvirus 1, UniProt P10210); test: Enzymatic assay for HSV-1 protease (assembly) inhibitor, fluorescence polarization; type: biochemical; conditions: read-out: HSV-1 Enzyme inhibition IC50
T1 construct: 6xHis (N); made in house; host or cells: baculovirus expression system
T1 sequence (P10210 1-247): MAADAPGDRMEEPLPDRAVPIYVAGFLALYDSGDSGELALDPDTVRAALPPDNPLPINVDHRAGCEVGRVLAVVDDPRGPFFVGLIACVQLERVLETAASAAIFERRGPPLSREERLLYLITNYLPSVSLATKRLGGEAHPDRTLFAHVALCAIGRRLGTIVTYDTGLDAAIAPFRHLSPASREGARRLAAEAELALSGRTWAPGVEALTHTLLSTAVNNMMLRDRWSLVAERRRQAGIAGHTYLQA
Summary of the method: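 His6-tagged HSV-1 UL26 protease, baculovirus-expressed, preincubated 30 min at RT with compound in 1 M citrate/phosphate buffer pH 7.4 with 20% glycerol and 2 mM TCEP. A biotin-HTYLQA*SERFRIK-DTAF substrate was then cleaved for 60 min at RT, stopped with avidin, and read by fluorescence polarization versus no-inhibitor control.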

Human plasma stability = type: in vitro ADME
Method: An Assay Method for Human Plasma Stability Human plasma was thawed, 200 μl each thereof was placed in each cell of a 96-well plate immediately thereafter, and 4 μl of solution of each test compound in 1 mM DMF was added thereto. A microplate reader for fluorescence absorption was used to assay changes in fluorescence, and half life was determined based on the changes.

VZV = test: Antiviral activity 2, plaque formation in HEL cells; type: cell-based; conditions: Human alphaherpesvirus 3, 72 h, 3 days
Method: (§1) An Assay Method for Antiviral Activity 2
(§2) The HEL cells were sowed on a 48-well plate and then cultured overnight. The culture supernatant was removed, and 100 μl of 2% FBS-DMEM containing 40 Plaque-forming units of HSV-1, HSV-2, VZV, or CMV was added. A viral solution Was removed 1 hour later, and 500 μl of 2% FBS-DMEM containing 0.5% methylcellulose comprising 50, 25, 12.5, 6.3, 3.2, or 1.6 μM of the test compound was added. In this case, a substance to which 2% FBS-DMEM containing 0.5% methylcellulose not comprising any test compound had been added was designated as a control. In the case of HSV-1, HSV-2, or VZV, incubation was carried out in the presence of 5% CO2 at 37° C. for 3 days. In the case of CMV, incubation was carried out under the same conditions for 14 days. After they were immobilized on formalin and stained with bromophenol blue, the amount of plaque formed was counted, and the ratio of plaque formation of the drug-containing reaction system relative to the control was determined. The concentration of the drug with which the ratio of plaque formation reaches 50% was calculated and determined to be IC50. Concerning HSV-1, an aciclovir-resistant thymidine kinase variant and a DNA polymerase variant were examined in addition to a general aciclovir-sensitive strain.

HSV2 = test: as above; type: cell-based, HSV-2; conditions: Human alphaherpesvirus 2, 72 h, 3 days
Method: as §1, §2

HCMV = test: as above; type: cell-based, CMV; conditions: Human betaherpesvirus 5, 336 h, 14 days
Method: as §1, §2

Q: Which “Cell viability (% of control)” value (Vero cells) does the source give for `Cc1c(NC(=O)OC(C)(C)C)ccc2nc(NC(C)(C)C(=O)N(C)CCc3ccccn3)oc(=O)c12` [Compound No.18, (5-methyl-2-{1-methyl-1-[methyl-(2-pyridin-2-yl-ethyl)-carbamoyl]-ethylamino}-4-oxo-4H-benzo[d][1,3]oxazin-6-yl)-carbamic Acid Tert-Butyl Ester] here?
A: 101.0%

Q: What about the IC50 (HSV-1 protease) of the same compound?
A: 0.4 µM

Q: And the half-life at 19.6 μM (Human plasma stability)?
A: 2.83 h

Q: And the IC50 (VZV)?
A: 25 µM

Q: And the IC50 (HSV2)?
A: 12.5 µM

Q: And the IC50 (HCMV)?
A: 11.1 µM
